# Assay results from US6379959B1, “Metalocarboxypeptidase inhibitors and derived molecules used as antitumor agents” (Universitat Autonoma de Barcelona, priority 1996, dated 2002).
# Positions of bridges follow the written chain, without caps; N, C: chain ends. No end group written: not given here.
# Columns and labels:
# [1] = tested on: human pancreatic adenocarcinoma cell line IBF-CP3; assay: Proliferation test by recount of the cells number (hemocytometer), IBF-CP3; assay type: cell-based
# Description: In this assay and with the aim of determining whether the presence in the culture medium produces some effect on the growth in vitro of the cell lines, the final number of the cells when the control reaches monolayer is determined, in the presence and in the absence of the inhibitor. The calculation is made by direct recount of the number of cells using trypsinization and subsequent recount in a hemocytometer. The detailed method is as follows:
# 1. In each of the three culture flasks of 25 cm^2, 5×10^5 cells are seed and a total volume of the culture medium is added (DMEM with a 10% of fetal bovine serum or synthetic serum, according to the test) of 5 mL:
# A first flask is used as control and no PCI is added to it.
# PCI is added to a second flask some hours after the culture has started and once the cells have adhered to the bottom of the flask. This type of test is defined as postadherence test.
# PCI is added to a third flask at the same time as the culture has begun, before the cells have had time to adhere to the bottom of the flask, thus constituting the preadherence test.
# 2. The cells are maintained in an incubator at 37° C., 87% of relative humidity and 10% of CO2. The medium contained in the flasks is changed every 3-4 days. Medium free of PCI is added to the control flask; medium with PCI is added to the other two.
# 3. When the culture of one of the flasks reaches a state of monolayer (or after a specific number of days), we proceed to count the number of cells in each one of them. Firstly and in order to do that, the cells are trypsinized using the following steps:
# Immediately after, the recount of the number of cells is done. To do that, an aliquot of 10 μL is taken and it is placed in an eppendorf tube. 10 μL of a solution of trypan blue dye is added. Then, it is well mixed and two aliquots of 10 μL of the mixture are taken and placed in the two zones of an hemocytometer which is placed in the inverted microscope.
# The live cells are observed as being refringent and clear, while the dead ones are observed as opaque and dyed blue, for the staining is only able to penetrate dead cells. The total number of cells of the W zone of the hemocytometer is counted, differentiating between the live and the dead ones. Based on this recount, the total number of cells that was in the initial suspension (which will be the total number of cells that was in the culture) is calculated by multiplying the number obtained by 2×10^4. The viability (in %) is calculated by dividing the number of live cells by the total number of counted cells and multiplying it by 100.
# The effect produced by the presence of PCI in the medium is expressed as % of cell growth inhibition, which is calculated according to the formula [formula] […]
# [2] = tested on: human pancreatic adenocarcinoma cell line Capan-1; assay: Growth curve of the cell line Capan-1 in presence or absence of PCI; assay type: cell-based; details: for Duplication time: DMEM + 10% FBS (control 85)
# Description: The growth curve of the human pancreatic adenocarcinoma cell line Capan-1 was determined by culturing the cells in medium DMEM supplemented with 10% of FBS (see Section 4 ..B.1.). Plates with wells were used, each with a surface of 10 cm^2 (Nunc, Denmark). The number of cells initially placed per well was 1×10^5, and changes of medium were made every four days, adding new PCI in the medium in the case of the cells treated with PCI.
# Three growth curves were determined (FIG. 10) in absence of PCI and in presence of PCI, in concentrations of 1 μg/mL and of 10 μg/mL. Initially, 45 replica-wells were placed for each treatment. After 15 days, three of the replica-wells of each treatment were taken and their number of cells counted by means of trypsinization and recount employing hemocytometer (for a description of the technique, see Section 4.B.1.). The results of the tests are shown in Table 13, which presents the duplication times calculated from the data.
# trypsin = assay: Gene expression analysis by Northern transfer, trypsin probe; assay type: cell-based, human; details: for beta counts, Trypsin probe: 12 days, Capan-1 (control 511)
# Description: (§1) To verify whether the PCI plays any role in signal transduction, studies of gene expression were carried out by Northern transfer. The probes were: β2-microglobulin, p53 and trypsin. The β2-microglobulin is a constitutive gene that is used as a sample loading control in the gel. p53 is a transcription factor which, among other functions, controls the state of the genomic DNA and the cell cycle (Bates, S. & Vousden, K. H. (1996) Curr. Opin. Genet. Develop., 6: 12-19). If the DNA is damaged, p53 induces its repair and, if it is excessively damaged, it provokes programmed cellular death (apoptosis). Trypsin is a marker of pancreatic cells of the acinar type. The trypsin is not expressed by all the tumoral cells and it is believed that it is expressed by the cells with metastatic power and/or invasive power (Fernández, E. et al., (1994) Cancer, 73: 2285-2295). The probes employed are described as follows:
# In the first place, 3×10^6 cells of the human pancreatic adenocarcinoma cell line Capan-1 were placed in each one of the 12 flasks of 150 cm^2. […] They were maintained in culture for 12 days period, changing their medium every 4 days, adding fresh PCI. Once the treatment was completed, the cells were trypsinized and the sediment of the cells was kept at −80° C. Afterwards, the extraction of the RNA was carried out.
# The quantifying of the hybridized filters with the respective probes was done using a Betascope 601 blot Analyzer counter (Betagen, USA). The counting time was 45 min for the hybridized filter with the probe p53 and β2-microglobuline and 2 h for the trypsin probe.
# Assuming that the counts of the β2-Microglobuline are an indication of the total amount of poly(A^+) RNA, the data may be standardized as a percentage of counts of the band compared to the β2-microglobuline counts of the same cells, giving a value which depends on the abundance of the specific mRNA in relation to the total of mRNA.
# [3] = tested on: human pancreatic adenocarcinoma cell line Capan-1; details: 16 days
# Description: Two kinds of tests were carried out; the first one is the treatment of cells of the human pancreatic adenocarcinoma cell line Capan-1 with wtPCI and tail added to the culture medium in absence of serum.
# In a culture plate with 96 wells, 5,000 cells were seed per well, in 24 of them. The cells were placed in full medium (DMEM+10%FBS).
# In 6 wells (control): 200 μL of serum-free medium (DMEM-FBS) and free of tail were added.
# 200 μL of serum-free medium with 50 μg/mL of native PCI were added.
# In 6 wells, 200 μL of serum-free medium with 0.128 μg of tail/mL were added.
# In 6 wells, serum-free medium with 6.4 μg of tail/mL was added.
# The medium contained in the wells was changed every 3-4 days. The old medium was sucked out using a Pasteur pipette.
# After 16 days, the cell growth per well was evaluated according to the method detailed in the protocol of Section 4.B.2.a.
# β2-microglobuline = assay: Gene expression analysis by Northern transfer, β2-microglobuline probe; assay type: cell-based, human; details: 12 days, Capan-1 (control 955)
# Description: as §1
# In the first place, 3×10^6 cells of the human pancreatic adenocarcinoma cell line Capan-1 were placed in each one of the 12 flasks of 150 cm^2. […] They were maintained in culture for 12 days period, changing their medium every 4 days, adding fresh PCI. […]
# The quantifying of the hybridized filters with the respective probes was done using a Betascope 601 blot Analyzer counter (Betagen, USA). […]
# embryonic cells of mice = details: PCI in low concentrations (5 μg/mL), in vitro; cited from earlier work
substance,measurement,setting,value
"PCI: potato carboxypeptidase inhibitor, isoform IIa, obtained by recombinant DNA techniques in E. coli (SEQ ID NO.2) (EQHADPICNKPCKTHDDCSGAWFCQACWNSARTCGPYVG; disulfide 12-27, 18-34, 8-24)",Percentage of Growth Inhibition,"[1]; 5 mg PCI/mL, Postadhesion",23.7 ± 19.3%
same,Percentage of Growth Inhibition,"[1]; 5 mg PCI/mL, Preadhesion, DMEM+10%BMS until controls confluent",20.4 ± 14.2%
same,Percentage of Growth Inhibition,"[1]; 10 mg PCI/mL, Postadhesion",15.1 ± 8.3%
same,Percentage of Growth Inhibition,"[1]; 10 mg PCI/mL, Preadhesion",11.6 ± 8.5%
same,density reached by the stationary stage compared with the control cells,[2]; 10 μg/mL of PCI,a half
same,Duplication time,[2]; Treated with 1 mg/mL,90 h
same,Duplication time,[2]; Treated with 10 mg/mL,130 h
same,"lower transcription of trypsin, inverse quotient (control/treatment)",trypsin; 1 mg/mL PCI,2.9 times
same,Trypsin/b2 (counts of one band in relation to those of β2-microglobuline),trypsin; 1 mg/mL PCI (control 0.5351),0.1814
same,"beta counts, Trypsin probe",trypsin; 1 mg/mL PCI,396
same,"lower transcription of trypsin, inverse quotient (control/treatment)",trypsin; 10 mg/mL PCI,7.8 times
same,Trypsin/b2 (counts of one band in relation to those of β2-microglobuline),trypsin; 10 mg/mL PCI (control 0.5351),0.0687
same,"beta counts, Trypsin probe",trypsin; 10 mg/mL PCI,432
same,Growth (Percentage in relation to the average of the controls),"[3]; 50 mg/mL wtPCI, serum-free medium",107.6%
same,growth of Capan-1 cells,[3]; wtPCI in serum-free medium,not altered
same,"beta counts, β2-microglobuline probe",β2-microglobuline; 1 mg/mL PCI,2183
same,"beta counts, β2-microglobuline probe",β2-microglobuline; 10 mg/mL PCI,6287
same,tumoral transformation induced by irradiation,embryonic cells of mice,inhibits in vitro the tumoral transformation
